Assay results published in patent US6759399B1, “Use of antimineralocorticoid compounds against narcotic withdrawal syndrome” (Aventis Pharma S.A., priority 1995, dated 2004).
Values joined by “and” are separate entries in the source; they are usually repeats but may differ in a detail not shown here. Identical values can stand only once.

How the values were obtained:
[1] = tested on: morphinic withdrawal syndrome induced by naloxone in mice; test: Withdrawal syndrome induced by naloxone in mice treated with morphine (jumping test); conditions: for % protection: relative to the morphine group
[2] = tested on: self-administration of cocaine in rats; test: Dependence induced by cocaine: self-administration of cocaine in trained rats; type: in vivo; conditions: 1 hour before session
Method: The anti-mineralocorticoid product AM2 was tested on 5 rats which were trained in the self-administration of cocaine during daily periods of one hour.
These rats were pre-treated 1 hour before the start of the self-administration sessions.
The product AM2 dissolved in a saline solution was administered by intra-peritoneal route. The doses range from 10 to 100 mg/kg.

[3] = antimineralocorticoid alone 4 × 10 mg/kg p.o., no morphine, naloxone 100 mg/kg i.p.
[4] = antimineralocorticoid alone 4 × 20 mg/kg p.o., no morphine, naloxone 100 mg/kg i.p.
[5] = morphine 799 mg/kg s.c. + antimineralocorticoid 4 × 10 mg/kg p.o., naloxone 100 mg/kg i.p.
[6] = morphine 799 mg/kg s.c. + antimineralocorticoid 4 × 10 mg/kg p.o.
[7] = morphine 799 mg/kg s.c. + antimineralocorticoid 4 × 20 mg/kg p.o., naloxone 100 mg/kg i.p.
[8] = morphine 799 mg/kg s.c. + antimineralocorticoid 4 × 20 mg/kg p.o.

Row | Compound | Number of jumps/10 minutes (m ± sem) [1, 3] [jumps/10 minutes] | Number of jumps/10 minutes (m ± sem) [1, 4] [jumps/10 minutes] | Number of jumps/10 minutes (m ± sem) [1, 5] [jumps/10 minutes] | % protection [1, 6] [%] | Number of jumps/10 minutes (m ± sem) [1, 7] [jumps/10 minutes] | % protection [1, 8] [%] | Number of jumps/10 minutes (m ± sem) ([1]; morphine alone 799 mg/kg s.c. (cumulative over 4 days), naloxone 100 mg/kg i.p. on day 4) | Number of jumps/10 minutes (m ± sem) ([1]; antimineralocorticoid alone 4 × 50 mg/kg p.o., no morphine, naloxone 100 mg/kg i.p.) [jumps/10 minutes] | Number of jumps/10 minutes (m ± sem) ([1]; morphine 799 mg/kg s.c. + antimineralocorticoid 4 × 50 mg/kg p.o., naloxone 100 mg/kg i.p.) [jumps/10 minutes] | % protection ([1]; morphine 799 mg/kg s.c. + antimineralocorticoid 4 × 50 mg/kg p.o.) [%] | effect on the self-administration of cocaine ([2]; pre-treatment with 10 or 20 mg/kg intra-peritoneal) | effect on the self-administration of cocaine ([2]; pre-treatment with 50 or 75 mg/kg intra-peritoneal)
1 | CC(=O)S[C@@H]1CC2=CC(=O)CC[C@]2(C)[C@H]2CC[C@@]3(C)[C@@H](CC[C@@]34CCC(=O)O4)[C@H]12 [AM1, γ-lactone of 7α-acetylthio-17β-hydroxy-3-oxo-17α-pregn-4-ene-21-carboxylic acid] | 3 ± 2 | 11 ± 4 | 51 ± 7 | −33 | 77 ± 8 | −32 | – | – | – | – | – | –
2 | CN1CC[C@]23c4c5ccc(O)c4O[C@H]2[C@@H](O)C=C[C@H]3[C@H]1C5 [Morphine, morphine] | – | – | – | – | – | – | 114 ± 8 jumps/10 minutes and 76 ± 15 jumps/10 minutes and 102 ± 10 jumps/10 minutes and 99 ± 13 jumps/10 minutes | – | – | – | – | –
3 | CCC[C@@H]1CC2=CC(=O)CC[C@]2(C)[C@H]2CC[C@@]3(C)[C@@H](CC[C@@]3(O)CCC(=O)[O-])[C@H]12.[K+] [AM2, potassium 17β-hydroxy 3-oxo 7α-propyl-(17α)-pregn-4-ene-21-carboxylate] | 2 ± 2 | 4 ± 4 | 76 ± 16 | −25 | 51 ± 8 | −48 | – | 3 ± 2 | 61 ± 8 | −40 | little or no effect | significant reduction
